ChEMBL document CHEMBL1201862, “PubChem BioAssay data set” (2004)
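Growth conditions: 96-well plates. Treatment: test compound, 48 hours, 5 concentrations. Analysis: linear interpolation between bracketing concentrations; unreached endpoints set to highest concentration. At the GI50, growth is halved.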 Active and inactive are the calls of the source. Cut-off read from the data, not from the text of the source: active = GI50 up to about 1.1 µM and inactive = higher.

Experiments:
Experiment in all cases: NCI tumour cell line growth inhibition, 48 h
786-0 = tested on: 786-0
A498 = tested on: A498
A549 = tested on: A549
ACHN = tested on: ACHN
BT-549 = tested on: BT-549
CAKI-1 = tested on: CAKI-1
CCRF-CEM = tested on: CCRF-CEM
COLO 205 = tested on: COLO 205
DU-145 = tested on: DU-145
EKVX = tested on: EKVX
HCC 2998 = tested on: HCC 2998
HCT-116 = tested on: HCT-116
HCT-15 = tested on: HCT-15
HL-60 = tested on: HL-60
HOP-62 = tested on: HOP-62
HOP-92 = tested on: HOP-92
HT-29 = tested on: HT-29
Hs-578T = tested on: Hs-578T
IGROV-1 = tested on: IGROV-1
K562 = tested on: K562
KM12 = tested on: KM12
LOX IMVI = tested on: LOX IMVI
M14 = tested on: M14
MCF7 = tested on: MCF7
MDA-MB-231 = tested on: MDA-MB-231
MDA-MB-435 = tested on: MDA-MB-435
MDA-N = tested on: MDA-N
MOLT-4 = tested on: MOLT-4
Malme-3M = tested on: Malme-3M
NCI-H226 = tested on: NCI-H226
NCI-H23 = tested on: NCI-H23
NCI-H460 = tested on: NCI-H460
NCI/ADR-RES = tested on: NCI/ADR-RES
OVCAR-3 = tested on: OVCAR-3
OVCAR-4 = tested on: OVCAR-4
OVCAR-5 = tested on: OVCAR-5
OVCAR-8 = tested on: OVCAR-8
PC-3 = tested on: PC-3
SF-295 = tested on: SF-295
SF-539 = tested on: SF-539
SK-MEL-28 = tested on: SK-MEL-28
SK-MEL-2 = tested on: SK-MEL-2
SK-MEL-5 = tested on: SK-MEL-5
SK-OV-3 = tested on: SK-OV-3
SN12C = tested on: SN12C
SNB-19 = tested on: SNB-19
SNB-75 = tested on: SNB-75
SR = tested on: SR
SW-620 = tested on: SW-620
T47D = tested on: T47D
TK-10 = tested on: TK-10
U-251 = tested on: U-251
UACC-257 = tested on: UACC-257
UACC-62 = tested on: UACC-62
UO-31 = tested on: UO-31
NCI-H522 = tested on: NCI-H522
RXF 393 = tested on: RXF 393
SF-268 = tested on: SF-268

## Cc1ccc(Cc2nnc(S)[nH]2)cc1
786-0
  GI50: 75.3 µM (inactive)
A498
  GI50: > 100 µM (inactive)
A549
  GI50: 84.7 µM (inactive)
ACHN
  GI50: 63.7 µM (inactive)
BT-549
  GI50: > 100 µM (inactive)
CAKI-1
  GI50: > 100 µM (inactive)
CCRF-CEM
  GI50: 56.6 µM (inactive)
COLO 205
  GI50: > 100 µM (inactive)
DU-145
  GI50: 70.8 µM (inactive)
EKVX
  GI50: > 100 µM (inactive)
HCC 2998
  GI50: > 100 µM (inactive)
HCT-116
  GI50: 54.8 µM (inactive)
HCT-15
  GI50: > 100 µM
HL-60
  GI50: 25.8 µM (inactive)
HOP-62
  GI50: 61.9 µM (inactive)
HOP-92
  GI50: > 100 µM (inactive)
HT-29
  GI50: > 100 µM (inactive)
Hs-578T
  GI50: 47.2 µM (inactive)
IGROV-1
  GI50: 50.8 µM (inactive)
K562
  GI50: 94.8 µM (inactive)
KM12
  GI50: 79.1 µM (inactive)
LOX IMVI
  GI50: 74 µM (inactive)
M14
  GI50: > 100 µM (inactive)
MCF7
  GI50: > 100 µM (inactive)
MDA-MB-231
  GI50: > 100 µM (inactive)
MDA-MB-435
  GI50: > 100 µM (inactive)
MDA-N
  GI50: > 100 µM (inactive)
MOLT-4
  GI50: > 100 µM (inactive)
Malme-3M
  GI50: > 100 µM (inactive)
NCI-H226
  GI50: > 100 µM (inactive)
NCI-H23
  GI50: 81.3 µM (inactive)
NCI-H460
  GI50: 78.2 µM (inactive)
NCI/ADR-RES
  GI50: 77.6 µM (inactive)
OVCAR-3
  GI50: > 100 µM (inactive)
OVCAR-4
  GI50: 32.3 µM (inactive)
OVCAR-5
  GI50: > 100 µM (inactive)
OVCAR-8
  GI50: 79.4 µM (inactive)
PC-3
  GI50: > 100 µM (inactive)
SF-295
  GI50: 52.2 µM (inactive)
SF-539
  GI50: > 100 µM (inactive)
SK-MEL-28
  GI50: > 100 µM (inactive)
SK-MEL-2
  GI50: > 100 µM (inactive)
SK-MEL-5
  GI50: 74.6 µM (inactive)
SK-OV-3
  GI50: > 100 µM (inactive)
SN12C
  GI50: > 100 µM (inactive)
SNB-19
  GI50: > 100 µM (inactive)
SNB-75
  GI50: > 100 µM (inactive)
SR
  GI50: > 100 µM (inactive)
SW-620
  GI50: > 100 µM (inactive)
T47D
  GI50: 40.8 µM (inactive)
TK-10
  GI50: > 100 µM (inactive)
U-251
  GI50: > 100 µM (inactive)
UACC-257
  GI50: > 100 µM (inactive)
UACC-62
  GI50: > 100 µM (inactive)
UO-31
  GI50: 79.8 µM (inactive)

## O=C(CCc1ccc(O)cc1)NCCc1cccc(OCc2ccccc2)c1
786-0
  GI50: 40.4 µM (inactive)
A498
  GI50: 55.8 µM (inactive)
A549
  GI50: 40.1 µM (inactive)
ACHN
  GI50: 33.2 µM (inactive)
BT-549
  GI50: 16.7 µM (inactive)
CAKI-1
  GI50: 48 µM (inactive)
CCRF-CEM
  GI50: 2.96 µM (inactive)
COLO 205
  GI50: 49.4 µM (inactive)
DU-145
  GI50: 30.8 µM (inactive)
EKVX
  GI50: 31.5 µM (inactive)
HCC 2998
  GI50: 24.4 µM (inactive)
HCT-116
  GI50: 21.8 µM (inactive)
HCT-15
  GI50: 29 µM
HL-60
  GI50: 16.6 µM (inactive)
HOP-62
  GI50: 29.6 µM (inactive)
HOP-92
  GI50: 23.6 µM (inactive)
HT-29
  GI50: 19.5 µM (inactive)
Hs-578T
  GI50: 35.3 µM (inactive)
IGROV-1
  GI50: 28.5 µM (inactive)
K562
  GI50: 17.9 µM (inactive)
KM12
  GI50: 25.4 µM (inactive)
LOX IMVI
  GI50: 15.6 µM (inactive)
M14
  GI50: 17.8 µM (inactive)
MCF7
  GI50: 27.9 µM (inactive)
MDA-MB-231
  GI50: 29 µM (inactive)
MDA-MB-435
  GI50: 18.1 µM (inactive)
MDA-N
  GI50: 25.1 µM (inactive)
MOLT-4
  GI50: 14 µM (inactive)
Malme-3M
  GI50: 27.7 µM (inactive)
NCI-H226
  GI50: 29 µM (inactive)
NCI-H23
  GI50: 24.4 µM (inactive)
NCI-H460
  GI50: 22.8 µM (inactive)
NCI-H522
  GI50: 32.9 µM (inactive)
NCI/ADR-RES
  GI50: 28.1 µM (inactive)
OVCAR-3
  GI50: 17.2 µM (inactive)
OVCAR-4
  GI50: 31.6 µM (inactive)
OVCAR-5
  GI50: 43.5 µM (inactive)
OVCAR-8
  GI50: 26.2 µM (inactive)
PC-3
  GI50: 20.1 µM (inactive)
RXF 393
  GI50: 15.8 µM (inactive)
SF-268
  GI50: 26.5 µM (inactive)
SF-295
  GI50: 30.3 µM (inactive)
SF-539
  GI50: 16.5 µM (inactive)
SK-MEL-28
  GI50: 22.7 µM (inactive)
SK-MEL-2
  GI50: 17.3 µM (inactive)
SK-MEL-5
  GI50: 17.4 µM (inactive)
SK-OV-3
  GI50: 27.7 µM (inactive)
SN12C
  GI50: 75.3 µM (inactive)
SNB-19
  GI50: 69 µM (inactive)
SR
  GI50: 15.4 µM (inactive)
T47D
  GI50: 21.7 µM (inactive)
TK-10
  GI50: 28.6 µM (inactive)
U-251
  GI50: 22.7 µM (inactive)
UACC-257
  GI50: 17.6 µM (inactive)
UACC-62
  GI50: 14.1 µM (inactive)
UO-31
  GI50: 12.7 µM (inactive)
